Test results published in ChEMBL document CHEMBL5518204, “Discovery and Proof of Concept of Potent Dual Polθ/PARP Inhibitors for Efficient Treatment of Homologous Recombination-Deficient Tumors” (J Med Chem, 2024).
Active and inactive are the calls of the source. The calls are words filed in the database; no cut-off is given here.

How the values were obtained:
[1] = Toxicity in BALB/c mouse xenografted with human MDA-MB-231 cells assessed as kidney damage at 20 to 40 mg/kg, ip administered for 21 days by H and E staining based analysis; assay type: organism-based; settings: in vivo, 504 h, dose 20-40 mg/kg, time 21 day
[2] = Apparent volume of distribution in Sprague-Dawley rat at 1 mg/kg, iv by LC-MS/MS analysis; assay type: ADME, organism-based; settings: in vivo, read-out: Vz
[3] = biological target: Poly [ADP-ribose] polymerase 1 (Homo sapiens, UniProt P09874); settings: dose 10.0 nM, time 90.0 min
Poly [ADP-ribose] polymerase 1, sequence (P09874 whole entry): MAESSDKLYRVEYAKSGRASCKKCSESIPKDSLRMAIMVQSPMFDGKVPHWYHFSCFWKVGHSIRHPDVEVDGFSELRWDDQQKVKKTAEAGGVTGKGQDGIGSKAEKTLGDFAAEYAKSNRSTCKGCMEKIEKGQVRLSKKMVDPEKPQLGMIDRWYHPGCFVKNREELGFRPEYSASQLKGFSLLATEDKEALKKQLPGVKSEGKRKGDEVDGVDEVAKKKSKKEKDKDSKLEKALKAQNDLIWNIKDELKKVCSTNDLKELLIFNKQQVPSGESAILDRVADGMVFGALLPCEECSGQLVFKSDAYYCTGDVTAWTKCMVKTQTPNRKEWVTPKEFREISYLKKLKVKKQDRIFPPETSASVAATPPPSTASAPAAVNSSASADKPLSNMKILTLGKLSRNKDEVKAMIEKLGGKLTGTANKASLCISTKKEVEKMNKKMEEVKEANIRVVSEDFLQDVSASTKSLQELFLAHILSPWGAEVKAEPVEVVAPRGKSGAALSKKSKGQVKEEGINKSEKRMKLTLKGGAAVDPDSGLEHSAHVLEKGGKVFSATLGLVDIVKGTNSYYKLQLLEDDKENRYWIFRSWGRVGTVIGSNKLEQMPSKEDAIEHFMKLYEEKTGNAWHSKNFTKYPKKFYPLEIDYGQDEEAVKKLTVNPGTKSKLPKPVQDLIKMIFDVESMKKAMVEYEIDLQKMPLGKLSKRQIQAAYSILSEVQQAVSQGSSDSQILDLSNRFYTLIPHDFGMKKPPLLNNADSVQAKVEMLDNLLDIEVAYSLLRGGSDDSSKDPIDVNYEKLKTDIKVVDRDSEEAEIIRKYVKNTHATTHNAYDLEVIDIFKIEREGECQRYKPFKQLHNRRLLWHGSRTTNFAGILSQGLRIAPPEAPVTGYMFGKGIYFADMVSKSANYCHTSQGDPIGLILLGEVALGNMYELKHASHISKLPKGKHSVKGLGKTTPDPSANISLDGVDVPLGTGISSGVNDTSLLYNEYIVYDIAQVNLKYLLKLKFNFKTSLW

[4] = Half life in Sprague-Dawley rat at 1 mg/kg, iv by LC-MS/MS analysis; assay type: ADME, organism-based; settings: in vivo
MDA-MB-231 [5] = test: Antitumor activity against human MDA-MB-231 cells xenografted in BALB/c mouse assessed as tumor growth inhibition at 20 mg/kg, ip administered for 21 days; assay type: functional; settings: MDA-MB-231, 504 h, time 21 day, read-out: TGI
MDA-MB-231 [6] = test: Induction of DNA damage in human MDA-MB-231 cells assessed as increase in tail intensity at 2 uM incubated for 3 days by florescence microscopic analysis; assay type: functional, cell-based; settings: time 3.0 day
[7] = Metabolic stability in rat liver microsome assessed as intrinsic clearance; assay type: ADME; settings: liver microsomes, read-out: CLH
[8] = biological target: T1, Protein mono-ADP-ribosyltransferase PARP8 (Homo sapiens, UniProt Q8N3A8); test: Inhibition of PARP8 (unknown origin)
T1 sequence (Q8N3A8 whole entry): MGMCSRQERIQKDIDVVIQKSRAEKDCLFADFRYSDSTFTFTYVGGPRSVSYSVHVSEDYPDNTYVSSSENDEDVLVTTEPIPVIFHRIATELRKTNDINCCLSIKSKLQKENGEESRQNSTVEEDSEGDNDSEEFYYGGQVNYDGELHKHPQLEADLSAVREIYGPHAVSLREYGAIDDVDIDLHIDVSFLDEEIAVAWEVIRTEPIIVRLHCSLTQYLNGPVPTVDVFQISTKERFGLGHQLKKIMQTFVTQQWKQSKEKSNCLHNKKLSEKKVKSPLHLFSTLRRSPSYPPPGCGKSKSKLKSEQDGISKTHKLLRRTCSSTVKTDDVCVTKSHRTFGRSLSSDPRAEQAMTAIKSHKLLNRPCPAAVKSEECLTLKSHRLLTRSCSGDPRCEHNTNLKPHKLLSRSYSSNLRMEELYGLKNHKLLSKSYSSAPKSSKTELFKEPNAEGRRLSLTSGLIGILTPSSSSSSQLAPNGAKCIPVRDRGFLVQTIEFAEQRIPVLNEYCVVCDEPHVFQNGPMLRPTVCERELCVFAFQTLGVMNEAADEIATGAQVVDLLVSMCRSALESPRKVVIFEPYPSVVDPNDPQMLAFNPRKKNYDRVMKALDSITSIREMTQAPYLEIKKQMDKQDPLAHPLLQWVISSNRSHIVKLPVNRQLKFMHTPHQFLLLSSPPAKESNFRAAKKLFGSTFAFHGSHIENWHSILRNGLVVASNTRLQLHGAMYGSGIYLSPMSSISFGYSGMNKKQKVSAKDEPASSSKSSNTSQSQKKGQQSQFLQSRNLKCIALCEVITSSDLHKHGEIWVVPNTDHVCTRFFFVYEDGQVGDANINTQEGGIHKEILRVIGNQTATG

[9] = biological target: T2, Protein mono-ADP-ribosyltransferase TIPARP (Homo sapiens, UniProt Q7Z3E1); test: Inhibition of PARP7 (unknown origin)
T2 sequence (Q7Z3E1 whole entry): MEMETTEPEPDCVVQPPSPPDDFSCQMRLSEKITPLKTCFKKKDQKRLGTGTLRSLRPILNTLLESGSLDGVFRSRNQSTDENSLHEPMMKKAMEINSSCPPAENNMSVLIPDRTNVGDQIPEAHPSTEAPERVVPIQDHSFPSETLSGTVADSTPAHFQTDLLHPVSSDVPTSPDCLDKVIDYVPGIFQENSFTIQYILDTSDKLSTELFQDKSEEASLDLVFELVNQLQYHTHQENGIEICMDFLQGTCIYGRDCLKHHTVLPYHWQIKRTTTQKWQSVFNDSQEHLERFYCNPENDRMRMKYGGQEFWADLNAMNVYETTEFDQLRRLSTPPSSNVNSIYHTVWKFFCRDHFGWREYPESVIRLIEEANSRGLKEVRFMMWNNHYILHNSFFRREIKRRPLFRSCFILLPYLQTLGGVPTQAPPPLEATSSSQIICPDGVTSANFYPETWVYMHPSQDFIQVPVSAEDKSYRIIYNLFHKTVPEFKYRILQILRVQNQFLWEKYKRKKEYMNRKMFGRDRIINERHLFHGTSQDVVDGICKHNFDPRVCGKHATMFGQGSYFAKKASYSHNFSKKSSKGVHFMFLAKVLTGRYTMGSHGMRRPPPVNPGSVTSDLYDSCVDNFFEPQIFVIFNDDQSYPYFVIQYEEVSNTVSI

SW48 = test: Antiproliferative activity against BRCA2-deficient human SW48 cells assessed as inhibition of cell proliferation incubated for 5 days by MTT assay; assay type: functional, cell-based; settings: SW48, 120 h, read-out: IC50
HCT-116 = test: Antiproliferative activity against BRCA2-deficient human HCT-116 cells assessed as inhibition of cell proliferation incubated for 5 days by MTT assay; assay type: functional, cell-based; settings: HCT-116, 120 h
[10] = Volume of distribution at steady state in Sprague-Dawley rat at 1 mg/kg, iv by LC-MS/MS analysis; assay type: ADME, organism-based; settings: in vivo, read-out: Vdss
MDA-MB-436 = test: Inhibition of colony formation in human MDA-MB-436 cells at 2 uM incubated for 9 days by crystal violet staining based analysis; assay type: functional, cell-based; settings: time 9.0 day
MDA-MB-231 [11] = test: Antitumor activity against human MDA-MB-231 cells xenografted in BALB/c mouse assessed as tumor growth inhibition at 40 mg/kg, ip administered for 21 days; assay type: functional; settings: MDA-MB-231, 504 h, time 21 day, read-out: TGI
[12] = Toxicity in BALB/c mouse xenografted with human MDA-MB-231 cells assessed as lung damage at 20 to 40 mg/kg, ip administered for 21 days by H and E staining based analysis; assay type: organism-based; settings: in vivo, 504 h, dose 20-40 mg/kg, time 21 day
[13] = Stability in rat plasma assessed as half life; assay type: ADME, cell-free

In the case of `COc1ccc(Cl)cc1-c1cc(C)ncc1C(=O)Nc1nnc(OCC2CCN(C(=O)c3cc(Cc4n[nH]c(=O)c5ccccc45)ccc3F)CC2)s1`, the Activity [1] is reported as “Non-Toxic”, the Vd [2] is reported as 3.97 L/kg and the inhibition [3] is reported as 71.1%. For the same compound, the half-life [4] was 2 h, the inhibition in vivo at 20 mg/kg (MDA-MB-231 [5]) was 40.6% and the Activity (MDA-MB-231 [6]) was “Active”. The CLint scaled [7] was 802 mL/min/kg, the IC50 [8] was 2930 nM and the IC50 [9] was 194 nM. It also gave an IC50 (SW48) of 2900 nM, an IC50 (HCT-116) of 8900 nM and a Vd [10] of 1.12 L/kg. The inhibition (MDA-MB-436) was “Active”, the inhibition in vivo at 40 mg/kg (MDA-MB-231 [11]) was 74.7% and the Activity [12] was “Non-Toxic”. For the same compound, the half-life [13] was 38.5 h.
